# Test results published in patent US20240189380A1, “COMPOSITIONS FOR INHIBITING EHP INFECTION IN SHRIMP AND RELATED METHODS” (priority 2022, published 2024).
# Test system: EHP spores
# Assay: In vitro inactivation of polar tube extrusion of EHP spores
# Format: cell-based, Enterocytozoon hepatopenaei
# Conditions: for polar tube extrusion rate: Batch 1 spores (high saline culture), 2 hours at 37° C.; for % of extrusion post-incubation: Batch 2 spores (low saline culture); for polar tube extrusion of EHP spores compared to DMSO control: p>0.05
# Description: The mechanism of EHP infection involves extrusion of polar tube (adhesive mechanism). In an in vitro study, inactivation of polar tube extrusion of EHP spores were tested with selected active ingredients namely thymoquinone, cinnamic aldehyde, eugenol, and carvacrol. The stock solution of bioactive molecules was prepared in dimethyl sulfoxide (DMSO) and further working solution prepared with 1× sterile phosphate buffer saline (1×PBS).
# EHP spores were isolated and purified from HP of infected shrimps from high saline shrimp culture system (Batch 1) and low saline shrimp culture system (Batch 2). Purified spores were then incubated with the test molecules at a desired concentration for 2 hours at 37° C. Washed spores were then induced for polar tube extrusion with alkaline agent. The extrusion of the spore polar tubes was determined under a light microscope at 100× magnification by counting the number of extruded spores from a total of 100 spores and converting the number into % of extrusion.
# Statistical analysis. The One-way analysis of variance (ANOVA) and t-Test were performed to determine the significant differences at a 95% confidence interval of % polar tube extrusion between spores treated with bioactive molecules and the corresponding DMSO control. The analyses were carried out using STATGRAPHICS centurion.
Compound,polar tube extrusion rate (10 ppm),polar tube extrusion rate (100 ppm),"% of extrusion post-incubation (10 ppm, 2% DMSO control 86.47%)","% of extrusion post-incubation (100 ppm, 20% DMSO control 88.32%)",polar tube extrusion of EHP spores compared to DMSO control (100 ppm)
CC1=CC(=O)C(C(C)C)=CC1=O [Thymoquinone],43.92%,6.34%,40.31%,0.31%,
O=C/C=C/c1ccccc1 [Cinnamic aldehyde],,,,,slight reduction
C=CCc1ccc(O)c(OC)c1 [Eugenol],,,,,slight reduction
Cc1ccc(C(C)C)cc1O [Carvacrol],,,,,slight reduction
